Results taken from the supplement of paper PMC10307832.

Columns and labels:
Assay in all cases: relative viability (nuclei count vs DMSO), 5 days (fraction); higher = more cells survive
BAM7 + Navitoclax = compound: CCOC1=CC=CC=C1N=NC2=C(NN(C2=O)C3=NC(=CS3)C4=CC=CC=C4)C [BAM7] + CC1(C)CCC(c2ccc(Cl)cc2)=C(CN2CCN(c3ccc(C(=O)NS(=O)(=O)c4ccc(N[C@H](CCN5CCOCC5)CSc5ccccc5)c(S(=O)(=O)C(F)(F)F)c4)cc3)CC2)C1 [Navitoclax] (partner 0.5 µM)
Method in brief: (§1)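 Relative viability was taken as the ratio of nuclei in treated wells to nuclei in vehicle wells. Lung cancer cell lines in 1536-well plates received compounds by pin tool one day after seeding, either one drug alone or a fixed anchor-drug dose plus five library-drug doses (not always all listed) in √10 steps. Nuclei were counted on 4× images after 5 days of treatment, and values are medians of duplicate plates.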

[1] = compound: CCn1c(-c2nonc2N)nc2c(C#CC(C)(C)O)ncc(OC[C@H]3CCCNC3)c21 + N=C(N)NC(=N)NCCc1ccccc1 [Phenformin] (partner 250 µM)
Method in brief: as §1

BAM7 = compound: CCOC1=CC=CC=C1N=NC2=C(NN(C2=O)C3=NC(=CS3)C4=CC=CC=C4)C [BAM7]
Method in brief: (§2)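 A plate was accepted only when its control CV was below 25% and the cells had doubled at least once. Viability is defined from nuclear counts as treated wells divided by vehicle wells, with the median taken across plates. That median covers lung cancer cell lines grown in 1536-well plates, dosed by pinning at five √10-spaced library-drug concentrations, and counted in MetaXpress from 4× Hoechst images after 5 days.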

[2] = compound: CCn1c(-c2nonc2N)nc2c(C#CC(C)(C)O)ncc(OC[C@H]3CCCNC3)c21
Method in brief: as §2

Cell Line | relative viability (BAM7 + Navitoclax; first compound 0.5 µM) | relative viability (BAM7 + Navitoclax; first compound 5 µM) | relative viability (BAM7 + Navitoclax; first compound 15.81 µM) | relative viability (BAM7 + Navitoclax; first compound 50 µM) | relative viability ([1]; first compound 0.01 µM) | relative viability ([1]; first compound 0.03162 µM) | relative viability ([1]; first compound 0.1 µM) | relative viability ([1]; first compound 0.3162 µM) | relative viability ([1]; first compound 1 µM) | relative viability (BAM7; 0.5 µM) | relative viability (BAM7; 5 µM) | relative viability (BAM7; 15.81 µM) | relative viability (BAM7; 50 µM) | relative viability ([2]; 0.01 µM) | relative viability ([2]; 0.03162 µM) | relative viability ([2]; 0.1 µM) | relative viability ([2]; 0.3162 µM) | relative viability ([2]; 1 µM)
LOU-NH91 | 0.708 | 0.75 | 0.69 | 0.655 | 0.683 | 0.566 | 0.686 | 0.607 | 0.635 | 0.974 | 1.06 | 0.939 | 0.973 | 1 | 0.924 | 0.989 | 0.9 | 0.888
NCI-H3122 | 1.07 | 0.984 | 1.06 | 1.07 | 0.401 | 0.364 | 0.447 | 0.389 | 0.374 | 1.02 | 1.09 | 1.01 | 1.01 | 1 | 0.973 | 1.06 | 0.991 | 1.01
HCC-827 | 1.06 | 1.04 | 0.914 | 0.939 | 0.395 | 0.37 | 0.388 | 0.402 | 0.402 | 1.04 | 1.05 | 1.06 | 1.03 | 1.06 | 1.03 | 1 | 0.986 | 0.99
SK-LU-1 | 0.487 | 1.01 | 0.8 | 0.827 | 0.552 | 0.575 | 0.455 | 0.48 | 0.537 | 1.04 | 1.24 | 0.962 | 1.13 | 1.06 | 1.09 | 0.88 | 0.953 | 0.966
NCI-H1975 | 0.9 | 1.1 |  | 0.862 | 0.4 | 0.394 | 0.393 | 0.389 | 0.352 | 0.823 | 0.898 | 0.775 | 0.903 | 0.932 | 1 | 0.96 | 0.921 | 0.843
NCI-H1651 | 1.01 | 1.01 | 0.943 | 1.09 | 0.353 | 0.387 | 0.382 | 0.28 | 0.337 | 1.02 | 1 | 1 | 1.05 | 0.941 | 0.935 | 0.95 | 0.924 | 1.01
NCI-H441 | 0.688 | 0.772 | 0.635 | 0.956 | 0.824 | 0.888 | 0.833 | 0.801 | 0.715 | 1.16 | 1.06 | 1.1 | 1.44 | 0.927 | 1.05 | 1.04 | 0.948 | 0.99
LCLC-97TM1 | 0.569 | 0.401 | 0.419 | 0.61 | 0.375 | 0.49 | 0.444 | 0.435 | 0.427 | 1.12 | 1.12 | 1.09 | 1.06 | 0.989 | 1.01 | 1.16 | 0.854 | 0.944
NCI-H727 | 0.419 | 0.458 | 0.471 | 0.441 | 0.468 | 0.461 | 0.618 | 0.515 | 0.502 | 0.962 | 0.811 | 0.881 | 0.937 | 1.02 | 0.866 | 0.871 | 0.848 | 0.973
NCI-H1355 | 0.856 | 0.94 | 0.773 | 0.957 | 0.488 | 0.458 | 0.417 | 0.434 | 0.483 | 0.971 | 0.888 | 0.862 | 0.91 | 0.932 | 0.904 | 0.958 | 0.945 | 0.992
HOP-62 | 1.03 | 1.23 | 1.04 | 1.06 | 0.662 | 0.687 | 0.635 | 0.649 | 0.687 | 1.03 | 1.09 | 1.07 | 1.07 | 0.989 | 0.945 | 1.01 | 0.976 | 1.01
NCI-H2085 | 1.13 | 1.24 | 1.02 | 1.21 | 0.627 | 0.694 | 0.674 | 0.706 | 0.719 | 0.995 | 0.976 | 0.933 | 1.01 | 0.991 | 0.977 | 1 | 0.937 | 0.97
